Experimental data from article PMC5059489, “Mechanistic evaluation and transcriptional signature of a glutathione S-transferase omega 1 inhibitor” (Nature Communications, 2016).
“And” between values parts separate entries of the source, which are not always exact repeats. Identical values can stand only once.

What was measured:
HCT116p53+/+ cell = test: MTT cell proliferation at single concentration; format: cell-based, human
Outline: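 MTT read-out (formazan in DMSO, 570 nm) after 3 h dye incubation at 37 °C, following 72 h inhibitor treatment of overnight-attached cells. Triplicate concentrations; ≥3 independent dose–response runs per line.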

GSTO1 [1] = target: T1, GSTO1 (Homo sapiens, UniProt P78417); test: In-gel fluorescence competitive CMFDA binding assay, recombinant GSTO1; settings: inhibition of CMFDA binding
T1 sequence (P78417 1-241): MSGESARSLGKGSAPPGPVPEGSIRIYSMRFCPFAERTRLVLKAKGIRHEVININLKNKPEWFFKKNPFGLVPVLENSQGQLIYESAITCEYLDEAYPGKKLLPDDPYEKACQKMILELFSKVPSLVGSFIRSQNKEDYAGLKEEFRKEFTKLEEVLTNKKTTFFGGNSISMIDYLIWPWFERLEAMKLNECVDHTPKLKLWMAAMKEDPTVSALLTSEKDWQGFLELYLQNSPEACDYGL
Description: (§1) Primary screening of GSTO inhibitors was based on competitive inhibition of CMFDA binding to endogenous GSTO. Briefly, HCT116^p53+/+ cells (4 × 10^4 per well) were coated in a 12-well plate. […] Cells were then washed with PBS and lysed using Cell Lytic M buffer (Sigma). […] Gels were immediately scanned on a Typhoon variable mode imager (Amersham Bioscience). Quantification of fluorescent band intensity was done using Image Quant 5.2 software.

endogenous GSTO1 = target: T2, endogenous GSTO1 (Homo sapiens, UniProt P78417); test: In-gel fluorescence competitive CMFDA binding assay, endogenous GSTO1 in HCT116; settings: 10 µM; inhibition of CMFDA binding, HCT116
T2 sequence (P78417 1-241): T1 sequence (P78417 1-241)
Description: as §1

GSTO1 [2] = target: T1, GSTO1; test: GSTO1 substrate assay (reduction of 4-NPG); settings: for IC50: read-out: GSTO substrate assay IC50, cluster screening tables
Protocol: For activity screening, we adapted a GSTO1 substrate assay that relies on the quantification of the reduction of S-(4-nitrophenacyl)glutathione (4-NPG), a GSTO1-specific substrate[17], using recombinant human GSTO1 in a high-throughput screening format.
Enzyme activity was measured by monitoring the reduction of 4-NPG to 4-nitroacetophenone by GSTO1.

SMILES	% Inhibition of HCT116p53+/+ cell proliferation at 10 µM (HCT116p53+/+ cell)	GSTO binding assay (% Inhibition at 10 µM) Recombinant (GSTO1 [1]) [%]	GSTO binding assay (% Inhibition at 10 µM) Endogenous (endogenous GSTO1) [%]	GSTO substrate assay % Inhibition at 10 µM (GSTO1 [2]) [%]	IC50 (GSTO1 [2]) [nM]
N#Cc1cnn(-c2ccccc2)c1NC(=O)CCl [C2-6]	-17% and -9.7%	36.8	25.2	84.5	
N#CCCN(C(=O)CCl)c1cccc(C(F)(F)F)c1 [C4-2]	84.1% and 93.6%	53.2	52.8	78.6	1070
O=C(CCl)Nc1ccc(Cl)cc1[N+](=O)[O-] [C1-2]	7.4%	54.1	66.2	100.9	1220
CCCCN(C(=O)CCl)c1c(N)n(CC(C)C)c(=O)[nH]c1=O [C4-19]	67.3%	2.1	-20.7	11.8	
O=C(CCl)NC1CCN(Cc2ccccc2)CC1 [C2-2]	1.1%	6.5	66.7	90.5	
CCN(CC(=O)NC1CCS(=O)(=O)C1)C(=O)CCl (stereo not drawn) [C4-13]	62.3% and 67.3%	5.1	7.3	27.2	
CN(CC1COc2ccccc2O1)C(=O)CCl (stereo not drawn) [C4-8]	70.7%	59.5	53.0	97.2	237
O=C(CCl)N1N=C(c2cccs2)CC1c1ccco1 (stereo not drawn) [C5-22]	41.2%	68.6	22.7	1.0	
COc1cc(CCNC(=O)CCl)ccc1OC(F)F [C3-11]	8.1% and 16.1%	10.1	45.6	9.8	
